We go through 1 molecule from ChEMBL document CHEMBL3784927, “Serum azathioprine and 6-mercaptopurine levels and immunosuppressive activity after azathioprine in uremic patients” (Int J Immunopharmacol, 1986).

Broadly, the half-life is how long it takes for the measured level to halve. One may read the Tmax as the time at which the peak concentration occurs. The term AUC(0-inf) denotes total exposure, with the tail of the curve extrapolated. Usually clearance stands for a measure of how efficiently the substance is removed, as volume per time. Read a high clearance as a high capacity for elimination. As usually defined, the Cmax is the highest concentration seen after dosing. What is called Vd is the apparent volume that relates the amount in the body to the concentration in plasma or blood.

The nature of series [1]: Half life in human with good renal function. The settings on record: in vivo.
Series [2] in a line: Terminal phase half life in uremic patient (15 patients) at 100 mg, iv by gas chromatography-mass spectrometry with multiple detection method. To be noted: human, in vivo.
Series [3] in a line: Tmax in uremic patient (8 patients) at 100 mg, po by gas chromatography-mass spectrometry with multiple detection method. To be noted: human, in vivo.
Series [4] can be described thus: AUC (0 to infinity) in uremic patient (7 patients) at 100 mg, po by gas chromatography-mass spectrometry with multiple detection method. The settings on record: human, in vivo.
The nature of series [5]: AUC (0 to infinity) in uremic patient (15 patients) at 100 mg, iv by gas chromatography-mass spectrometry with multiple detection method. To be noted: human, in vivo.
Series [6] in a line: Total clearance in uremic patient (15 patients) at 100 mg, iv by gas chromatography-mass spectrometry with multiple detection method. To be noted: human, in vivo.
A short description of series [7]: Cmax in uremic patient (15 patients) at 100 mg, iv by gas chromatography-mass spectrometry with multiple detection method. The settings on record: human, in vivo.
A short description of series [8]: Primary phase half life in uremic patient (13 patients) at 100 mg, iv by gas chromatography-mass spectrometry with multiple detection method. To be noted: human, in vivo.
Series [9] in a line: Tmax in uremic patient (15 patients) at 100 mg, iv by gas chromatography-mass spectrometry with multiple detection method. The settings on record: human, in vivo.
Series [10] is described as follows: Clearance in kidney transplant patient. The settings on record: human, in vivo.
A short description of series [11]: Cmax in uremic patient (8 patients) at 100 mg, po by gas chromatography-mass spectrometry with multiple detection method. To be noted: human, in vivo.
Series [12] is described as follows: Volume of distribution in uremic patient (15 patients) at 100 mg, iv by gas chromatography-mass spectrometry with multiple detection method. To be noted: human, in vivo.

The structures appear in SMILES notation.

Consider `Cn1cnc([N+](=O)[O-])c1Sc1ncnc2nc[nH]c12` [AZATHIOPRINE], for which the half-life in series [1] worked out at 10 min; in series [2], 49.5 min; in series [8], 6.05 min. The Tmax in series [3] is 15 min; in [9], 5 min. Further, the AUC(0-inf) in [4] was 164 nM·h; in [5], 1040 nM·h. Moreover, the clearance stood at 6920 mL/min in [6] and 3.42 L/h/kg in series [10]. Moreover, the Cmax worked out at 3.14 µM in series [7] and 0.18 µM in series [11]. In [12], this molecule showed a Vd of 438 L.
